Assay results published in patent publication US11548870B2, “Compounds useful as inhibitors of helios protein” (Bristol-Myers Squibb Company, priority 2019, dated 2023).
Values joined by “and” are separate entries in the source; they are usually repeats but may differ in a detail not shown here. Equal entries are not always repeated.

Tests used:
Ikaros = biological target: T1, Ikaros (Homo sapiens, UniProt Q13422); assay: Helios Cellular Degradation Assay, Ikaros readout (flow cytometry, Ikaros-Alexa488 antibody staining, 72 h); format: cell-based; details: Jurkat cells, 72 h incubation, flow cytometry; for Dmax: Jurkat, read-out: Ikaros Dmax
T1 construct: fluorescently labelled antibodies against Helios and Ikaros; endogenous in cells; host or cells: Jurkat cells
Method in brief: (§1)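 Flow cytometry of fixed, permeabilized Jurkat cells stained with anti-Helios-PE and anti-Ikaros-Alexa488 (1 h, room temperature) measured remaining protein. Treatment lasted 72 h at 37 °C, 5% CO2, at 80,000 cells/well in RPMI with 10% FBS.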

Helios = biological target: T2, Helios (Homo sapiens, UniProt Q96SW2+Q9UKS7); assay: Helios Cellular Degradation Assay (flow cytometry, Helios-PE antibody staining, 72 h); format: cell-based; details: Jurkat cells, 72 h incubation, flow cytometry; for Dmax: Jurkat, read-out: Helios Dmax
T2 construct: fluorescently labelled antibodies against Helios and Ikaros; endogenous in cells; host or cells: Jurkat cells
Method in brief: as §1

T1 sequence (Q96SW2 whole entry partner): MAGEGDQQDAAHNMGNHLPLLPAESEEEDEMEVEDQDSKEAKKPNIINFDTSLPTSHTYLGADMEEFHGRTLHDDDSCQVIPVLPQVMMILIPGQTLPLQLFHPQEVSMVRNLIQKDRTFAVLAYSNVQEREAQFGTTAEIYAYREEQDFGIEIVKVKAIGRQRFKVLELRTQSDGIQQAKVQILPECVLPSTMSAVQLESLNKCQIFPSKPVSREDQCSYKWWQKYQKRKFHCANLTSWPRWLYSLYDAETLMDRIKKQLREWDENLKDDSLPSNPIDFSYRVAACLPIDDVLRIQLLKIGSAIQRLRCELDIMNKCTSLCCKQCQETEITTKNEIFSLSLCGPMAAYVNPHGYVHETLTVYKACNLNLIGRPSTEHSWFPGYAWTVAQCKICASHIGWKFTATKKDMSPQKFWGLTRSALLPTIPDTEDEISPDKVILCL
T1 sequence (Q16531 whole entry partner): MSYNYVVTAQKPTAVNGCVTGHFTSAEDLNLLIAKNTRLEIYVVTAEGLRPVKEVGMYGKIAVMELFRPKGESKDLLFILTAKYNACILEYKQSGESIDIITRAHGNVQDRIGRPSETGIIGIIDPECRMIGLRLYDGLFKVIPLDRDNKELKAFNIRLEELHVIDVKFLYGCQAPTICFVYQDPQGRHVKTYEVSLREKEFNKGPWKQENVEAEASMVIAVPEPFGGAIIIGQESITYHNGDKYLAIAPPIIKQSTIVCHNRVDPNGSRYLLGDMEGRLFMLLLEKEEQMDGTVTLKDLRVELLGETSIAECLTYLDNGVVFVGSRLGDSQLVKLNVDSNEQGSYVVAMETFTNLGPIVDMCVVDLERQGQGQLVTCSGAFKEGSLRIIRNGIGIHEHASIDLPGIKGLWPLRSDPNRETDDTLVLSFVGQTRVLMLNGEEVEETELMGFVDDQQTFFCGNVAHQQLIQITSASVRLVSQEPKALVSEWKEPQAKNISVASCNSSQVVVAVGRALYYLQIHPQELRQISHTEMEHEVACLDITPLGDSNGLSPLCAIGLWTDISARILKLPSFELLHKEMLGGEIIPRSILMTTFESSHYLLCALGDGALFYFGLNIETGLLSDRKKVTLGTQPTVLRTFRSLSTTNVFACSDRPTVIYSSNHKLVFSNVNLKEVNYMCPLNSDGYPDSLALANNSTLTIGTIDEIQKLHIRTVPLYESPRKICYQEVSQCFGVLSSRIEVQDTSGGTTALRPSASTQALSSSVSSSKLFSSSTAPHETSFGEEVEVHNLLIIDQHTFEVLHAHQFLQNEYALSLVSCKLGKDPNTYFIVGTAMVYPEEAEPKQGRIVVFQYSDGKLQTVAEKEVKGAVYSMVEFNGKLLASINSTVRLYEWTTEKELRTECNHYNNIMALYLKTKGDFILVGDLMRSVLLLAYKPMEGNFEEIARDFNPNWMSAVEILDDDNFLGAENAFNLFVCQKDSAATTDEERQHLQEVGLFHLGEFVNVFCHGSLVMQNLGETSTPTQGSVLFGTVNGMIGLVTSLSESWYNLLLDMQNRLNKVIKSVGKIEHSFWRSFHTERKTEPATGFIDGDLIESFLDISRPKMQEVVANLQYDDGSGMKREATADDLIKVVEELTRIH
T1 sequence (Q13422 whole entry): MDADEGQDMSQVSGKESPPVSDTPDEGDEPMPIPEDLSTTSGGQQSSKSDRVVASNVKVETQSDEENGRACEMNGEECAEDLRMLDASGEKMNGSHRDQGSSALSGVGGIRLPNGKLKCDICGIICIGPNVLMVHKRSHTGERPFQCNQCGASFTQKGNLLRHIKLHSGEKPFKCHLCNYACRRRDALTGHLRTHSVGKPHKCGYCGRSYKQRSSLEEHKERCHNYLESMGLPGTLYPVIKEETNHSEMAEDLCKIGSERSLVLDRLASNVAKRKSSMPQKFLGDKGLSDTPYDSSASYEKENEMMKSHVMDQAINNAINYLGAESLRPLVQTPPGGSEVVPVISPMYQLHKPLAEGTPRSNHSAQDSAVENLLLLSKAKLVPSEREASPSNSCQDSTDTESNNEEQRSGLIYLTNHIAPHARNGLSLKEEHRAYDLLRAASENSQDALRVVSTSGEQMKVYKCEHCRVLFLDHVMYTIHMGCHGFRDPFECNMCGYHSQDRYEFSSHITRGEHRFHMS
T2 sequence (Q9UKS7 whole entry): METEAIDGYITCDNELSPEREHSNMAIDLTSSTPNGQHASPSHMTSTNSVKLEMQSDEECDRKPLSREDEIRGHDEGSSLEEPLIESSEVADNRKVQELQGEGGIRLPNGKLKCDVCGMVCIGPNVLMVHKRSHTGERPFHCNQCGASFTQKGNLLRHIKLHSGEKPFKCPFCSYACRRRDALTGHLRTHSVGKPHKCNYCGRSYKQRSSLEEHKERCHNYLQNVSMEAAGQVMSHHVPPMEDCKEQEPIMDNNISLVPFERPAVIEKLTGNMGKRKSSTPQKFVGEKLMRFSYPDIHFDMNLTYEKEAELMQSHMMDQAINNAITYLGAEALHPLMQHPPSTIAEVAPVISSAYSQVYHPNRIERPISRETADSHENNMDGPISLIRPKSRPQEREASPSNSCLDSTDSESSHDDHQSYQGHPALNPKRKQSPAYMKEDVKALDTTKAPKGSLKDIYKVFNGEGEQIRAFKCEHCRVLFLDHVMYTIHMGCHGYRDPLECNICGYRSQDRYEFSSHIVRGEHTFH
T2 sequence (Q96SW2 whole entry): as the sequence (Q96SW2 whole entry partner) above
T2 sequence (Q16531 whole entry partner): as the sequence (Q16531 whole entry partner) above

Row | DC50 (Ikaros) [µM] | Dmax (Ikaros) [%] | DC50 (Helios) [nM] | Dmax (Helios) [%] | Compound | Ikaros Dmax (Ikaros) | Helios Dmax (Helios) [%]
1 | > 10 | 15 | 48 | 75 | O=C1CCC(N2Cc3cc(-c4cc(CNC5CC5)ccn4)ccc3C2=O)C(=O)N1 (stereo not shown) [Example 109, 3-(5-(4-((cyclopropylamino)methyl)pyridin-2-yl)-1-oxoisoindolin-2-yl)piperidine-2,6-dione] | – | –
2 | > 10 | – | 35 | – | CC1CC(NCc2ccnc(-c3ccc4c(c3)CN(C3CCC(=O)NC3=O)C4=O)c2)CCO1 (stereo not shown) [Example 80, 3-(5-(4-(((2-methyltetrahydro-2H-pyran-4-yl)amino)methyl)pyridin-2-yl)-1-oxoisoindolin-2-yl)piperidine-2,6-dione] | 12% | 99
3 | > 10 | 13 | 13 | 90 | C[C@H]1CCN(Cc2ccnc(-c3ccc4c(c3)CN(C3CCC(=O)NC3=O)C4=O)c2)C1 (stereo partly drawn) [Example 72, 3-(5-(4-(((S)-3-methylpyrrolidin-1-yl)methyl)pyridin-2-yl)-1-oxoisoindolin-2-yl) piperidine-2,6-dione] | – | –
4 | > 10 | 2 | > 10000 | 22 | CN1CCC(N(C)Cc2ccnc(-c3ccc4c(c3)CN(C3CCC(=O)NC3=O)C4=O)c2)CC1 (stereo not shown) [Example 170, 3-(5-(4-((methyl (1-methylpiperidin-4-yl)amino)methyl)pyridin-2-yl)-1-oxoisoindolin-2-yl)piperidine-2,6-dione] | – | –
5 | > 10 | 3 | 53 | 77 | CC1(C)CCCN1Cc1ccnc(-c2ccc3c(c2)CN(C2CCC(=O)NC2=O)C3=O)c1 (stereo not shown) [Example 117, 3-(5-(4-((2,2-dimethylpyrrolidin-1-yl)methyl)pyridin-2-yl)-1-oxoisoindolin-2-yl)piperidine-2,6-dione] | – | –
6 | > 10 | 0 | > 10000 | 49 | CN1C[C@@H]2CN(Cc3ccnc(-c4ccc5c(c4)CN(C4CCC(=O)NC4=O)C5=O)c3)C[C@@H]2C1 (stereo partly drawn) [Example 78, 3-(5-(4-(((3aR,6aS)-5-methylhexahydropyrrolo[3,4-c]pyrrol-2(1H)-yl)methyl)pyridin-2-yl)-1-oxoisoindolin-2-yl)piperidine-2,6-dione] | – | –
7 | > 10 | 8 | 200 | 67 | CCN(CC)C(=O)C1CCCN(Cc2ccnc(-c3ccc4c(c3)CN(C3CCC(=O)NC3=O)C4=O)c2)C1 (stereo not shown) [Example 13, 1-((2-(2-(2,6-dioxopiperidin-3-yl)-1-oxoisoindolin-5-yl)pyridin-4-yl)methyl)-N,N-diethylpiperidine-3-carboxamide] | – | –
8 | > 10 | 13 | 352 | 87 | CC(C)CCN(C)Cc1ccnc(-c2ccc3c(c2)CN(C2CCC(=O)NC2=O)C3=O)c1 (stereo not shown) [Example 180, 3-(5-(4-((isopentyl(methyl)amino)methyl)pyridin-2-yl)-1-oxoisoindolin-2-yl)piperidine-2,6-dione] | – | –
9 | > 10 | 13 | 244 | 56 | CC(C)OC1CN(Cc2ccnc(-c3ccc4c(c3)CN(C3CCC(=O)NC3=O)C4=O)c2)C1 (stereo not shown) [Example 130, 3-(5-(4-((3-isopropoxyazetidin-1-yl)methyl)pyridin-2-yl)-1-oxoisoindolin-2-yl)piperidine-2,6-dione] | – | –
10 | > 10 | 2 | 1090 | 63 | CN(Cc1ccnc(-c2ccc3c(c2)CN(C2CCC(=O)NC2=O)C3=O)c1)Cc1ccc2ccccc2c1 (stereo not shown) [Example 162, 3-(5-(4-((methyl(naphthalen-2-ylmethyl)amino)methyl)pyridin-2-yl)-1-oxoisoindolin-2-yl)piperidine-2,6-dione] | – | –
11 | > 10 | – | > 10000 | 5.16 | Cc1cc2c(cc1-c1cc(CN(C)C)ccn1)CN(C1CCC(=O)NC1=O)C2=O (stereo not shown) [Example 194, 3-(5-(4-((dimethylamino)methyl)pyridin-2-yl)-6-methyl-1-oxoisoindolin-2-yl)piperidine-2,6-dione] | 0.04% and 3% | 5.2
12 | > 10 | 3 | > 10000 | 10 | CN1CCCN(Cc2ccnc(-c3ccc4c(c3)CN(C3CCC(=O)NC3=O)C4=O)c2)CC1 (stereo not shown) [Example 43, 3-(5-(4-((4-methyl-1,4-diazepan-1-yl)methyl)pyridin-2-yl)-1-oxoisoindolin-2-yl) piperidine-2,6-dione] | – | –
13 | > 10 | 15 | 45 | 84 | O=C1CCC(N2Cc3cc(-c4cc(CNC5CCC5)ccn4)ccc3C2=O)C(=O)N1 (stereo not shown) [Example 108, 3-(5-(4-((cyclobutylamino)methyl)pyridin-2-yl)-1-oxoisoindolin-2-yl)piperidine-2,6-dione] | – | –
14 | > 10 | 0 | 73 | 86 | CN(Cc1ccnc(-c2ccc3c(c2)CN(C2CCC(=O)NC2=O)C3=O)c1)CC1CC1 (stereo not shown) [Example 173, 3-(5-(4-(((cyclopropylmethyl)(methyl)amino)methyl)pyridin-2-yl)-1-oxoisoindolin-2-yl) piperidine-2,6-dione] | – | –
15 | > 10 | 6 | 444 | 58 | O=C1CCC(N2Cc3cc(-c4cc(CN5CCc6ccccc6C5)ccn4)ccc3C2=O)C(=O)N1 (stereo not shown) [Example 39, 3-(5-(4-((3,4-dihydroisoquinolin-2(1H)-yl)methyl)pyridin-2-yl)-1-oxoisoindolin-2-yl)piperidine-2,6-dione] | – | –
16 | > 10 | 18 | 42 | 75 | CCOC1CN(Cc2ccnc(-c3ccc4c(c3)CN(C3CCC(=O)NC3=O)C4=O)c2)C1 (stereo not shown) [Example 198, 3-(5-(4-((3-ethoxyazetidin-1-yl)methyl)pyridin-2-yl)-1-oxoisoindolin-2-yl) piperidine-2,6-dione] | – | –
17 | > 10 | 10 | 62 | 77 | CN(Cc1ccccc1)Cc1ccnc(-c2ccc3c(c2)CN(C2CCC(=O)NC2=O)C3=O)c1 (stereo not shown) [Example 164, 3-[5-(4-{[Benzyl(methyl)amino]methyl}pyridin-2-yl)-1-oxo-2,3-dihydro-1H-isoindol-2-yl]piperidine-2,6-dione] | – | –
18 | > 10 | 17 | > 10000 | 45 | CN(Cc1ccc(C#N)cc1)Cc1ccnc(-c2ccc3c(c2)CN(C2CCC(=O)NC2=O)C3=O)c1 (stereo not shown) [Example 150, 4-((((2-(2-(2,6-dioxopiperidin-3-yl)-1-oxoisoindolin-5-yl)pyridin-4-yl)methyl)(methyl)amino)methyl)benzonitrile] | – | –
19 | > 10 | 20 | 5870 | 54 | CN(Cc1ccnc(-c2ccc3c(c2)CN(C2CCC(=O)NC2=O)C3=O)c1)Cc1cncn1C (stereo not shown) [Example 174, 3-(5-(4-((methyl((1-methyl-1H-imidazol-5-yl)methyl)amino)methyl)pyridin-2-yl)-1-oxoisoindolin-2-yl)piperidine-2,6-dione] | – | –
20 | > 10 | 5 | 264 | 79 | NC(=O)CCNCc1ccnc(-c2ccc3c(c2)CN(C2CCC(=O)NC2=O)C3=O)c1 (stereo not shown) [Example 105, 3-(((2-(2-(2,6-dioxopiperidin-3-yl)-1-oxoisoindolin-5-yl)pyridin-4-yl)methyl)amino)propanamide] | – | –
21 | > 10 | 17 | 34 | 94 | COc1ccc(CCNCc2ccnc(-c3ccc4c(c3)CN(C3CCC(=O)NC3=O)C4=O)c2)cc1 (stereo not shown) [Example 95, 3-(5-(4-(((4-methoxyphenethyl)amino)methyl)pyridin-2-yl)-1-oxoisoindolin-2-yl)piperidine-2,6-dione] | – | –
22 | > 10 | 3 | 3200 | 52 | O=C1CCC(N2Cc3cc(-c4nccc(CN5CC(c6ccccc6)C5)c4F)ccc3C2=O)C(=O)N1 (stereo not shown) [Example 191, 3-(5-(3-fluoro-4-((3-phenylazetidin-1-yl)methyl)pyridin-2-yl)-1-oxoisoindolin-2-yl) piperidine-2,6-dione] | – | –
23 | > 10 | 20 | 46 | 82 | O=C1CCC(N2Cc3cc(-c4cc(CN5CCC(c6ccccc6)CC5)ccn4)ccc3C2=O)C(=O)N1 (stereo not shown) [Example 141, 3-(1-oxo-5-(4-((4-phenylpiperidin-1-yl)methyl)pyridin-2-yl)isoindolin-2-yl)piperidine-2,6-dione] | – | –
24 | > 10 | 4 | 40 | 69 | O=C1CCC(N2Cc3cc(-c4cc(CN[C@@H]5CCC[C@@H]5c5ccccc5)ccn4)ccc3C2=O)C(=O)N1 (stereo partly drawn) [Example 84, 3-(1-oxo-5-(4-((((1R,2R)-2-phenylcyclopentyl)amino)methyl)pyridin-2-yl)isoindolin-2-yl)piperidine-2,6-dione] | – | –
25 | > 10 | 50 | 154 | 82 | CC(C)N(Cc1ccccc1)Cc1ccnc(-c2ccc3c(c2)CN(C2CCC(=O)NC2=O)C3=O)c1 (stereo not shown) [Example 19, 3-(5-(4-((benzyl(isopropyl)amino)methyl)pyridin-2-yl)-1-oxoisoindolin-2-yl)piperidine-2,6-dione] | – | –

Row | Compound | DC50 (Ikaros) [µM] | Dmax (Ikaros) [%] | DC50 (Helios) [nM] | Dmax (Helios) [%] | Ikaros Dmax (Ikaros) | Helios Dmax (Helios) [%]
26 | 3-(1-oxo-5-(4-((4-(pyridin-2-yl)piperidin-1-yl)methyl)pyridin-2-yl)isoindolin-2-yl)piperidine-2,6-dione [Example 15] | > 10 | – | > 10000 | – | 8% | 5
27 | 3-(1-oxo-5-(4-((4-(pyrimidin-2-yl) piperidin-1-yl)methyl)pyridin-2-yl)isoindolin-2-yl)piperidine-2,6-dione [Example 18] | > 10 | – | > 10000 | – | 19% | 21
